Source: US11098038B2, “Imidazole-based anticancer agents and derivatives thereof, and methods of making and using same” (The University of Toledo, priority 2017, dated 2021)

Experiments:
CCRF-CEM = assay: NCI 60 screen, CCRF-CEM; assay type: cell-based; conditions: Homo sapiens, Leukemia
Protocol: (§1) The compounds synthesized were tested at the National Cancer Institute (NCI) for anti-proliferative activity in the 60 human tumor cell line assay.

HL-60(TB) = assay: NCI 60 screen, HL-60(TB); assay type: cell-based; conditions: Homo sapiens, Leukemia
Protocol: as §1

K-562 = assay: NCI 60 screen, K-562; assay type: cell-based; conditions: Homo sapiens, K562, Leukemia
Protocol: as §1

MOLT-4 = assay: NCI 60 screen, MOLT-4; assay type: cell-based; conditions: Homo sapiens, Leukemia
Protocol: as §1

RPMI-8226 = assay: NCI 60 screen, RPMI-8226; assay type: cell-based; conditions: Homo sapiens, Leukemia
Protocol: as §1

SR = assay: NCI 60 screen, SR; assay type: cell-based; conditions: Homo sapiens, Leukemia
Protocol: as §1

A549/ATCC = assay: NCI 60 screen, A549/ATCC; assay type: cell-based; conditions: Homo sapiens, Non-Small Cell Lung
Protocol: as §1

EKVX = assay: NCI 60 screen, EKVX; assay type: cell-based; conditions: Homo sapiens, Non-Small Cell Lung
Protocol: as §1

HOP-62 = assay: NCI 60 screen, HOP-62; assay type: cell-based; conditions: Homo sapiens, Non-Small Cell Lung
Protocol: as §1

HOP-92 = assay: NCI 60 screen, HOP-92; assay type: cell-based; conditions: Homo sapiens, Non-Small Cell Lung
Protocol: as §1

NCI-H226 = assay: NCI 60 screen, NCI-H226; assay type: cell-based; conditions: Homo sapiens, Non-Small Cell Lung
Protocol: as §1

NCI-H23 = assay: NCI 60 screen, NCI-H23; assay type: cell-based; conditions: Homo sapiens, Non-Small Cell Lung
Protocol: as §1

NCI-322M = assay: NCI 60 screen, NCI-322M; assay type: cell-based; conditions: Homo sapiens, Non-Small Cell Lung
Protocol: as §1

NCI-460 = assay: NCI 60 screen, NCI-460; assay type: cell-based; conditions: Homo sapiens, Non-Small Cell Lung
Protocol: as §1

NCI-H522 = assay: NCI 60 screen, NCI-H522; assay type: cell-based; conditions: Homo sapiens, Non-Small Cell Lung
Protocol: as §1

COLO 205 = assay: NCI 60 screen, COLO 205; assay type: cell-based; conditions: Homo sapiens, Colon
Protocol: as §1

HCC-2998 = assay: NCI 60 screen, HCC-2998; assay type: cell-based; conditions: Homo sapiens, Colon
Protocol: as §1

HCT-116 = assay: NCI 60 screen, HCT-116; assay type: cell-based; conditions: Homo sapiens, Colon
Protocol: as §1

HCT15 = assay: NCI 60 screen, HCT15; assay type: cell-based; conditions: Homo sapiens, HCT-15, Colon
Protocol: as §1

HT29 = assay: NCI 60 screen, HT29; assay type: cell-based; conditions: Homo sapiens, HT-29, Colon
Protocol: as §1

KM12 = assay: NCI 60 screen, KM12; assay type: cell-based; conditions: Homo sapiens, Colon
Protocol: as §1

SW-620 = assay: NCI 60 screen, SW-620; assay type: cell-based; conditions: Homo sapiens, Colon
Protocol: as §1

SF-268 = assay: NCI 60 screen, SF-268; assay type: cell-based; conditions: Homo sapiens, CNS
Protocol: as §1

SF-295 = assay: NCI 60 screen, SF-295; assay type: cell-based; conditions: Homo sapiens, CNS
Protocol: as §1

SF-539 = assay: NCI 60 screen, SF-539; assay type: cell-based; conditions: Homo sapiens, CNS
Protocol: as §1

SNB-19 = assay: NCI 60 screen, SNB-19; assay type: cell-based; conditions: Homo sapiens, CNS
Protocol: as §1

SNB-75 = assay: NCI 60 screen, SNB-75; assay type: cell-based; conditions: Homo sapiens, CNS
Protocol: as §1

U251 = assay: NCI 60 screen, U251; assay type: cell-based; conditions: Homo sapiens, U-251, CNS
Protocol: as §1

LOX IMVI = assay: NCI 60 screen, LOX IMVI; assay type: cell-based; conditions: Homo sapiens, Melanoma
Protocol: as §1

MALME-3M = assay: NCI 60 screen, MALME-3M; assay type: cell-based; conditions: Homo sapiens, Melanoma
Protocol: as §1

M14 = assay: NCI 60 screen, M14; assay type: cell-based; conditions: Homo sapiens, Melanoma
Protocol: as §1

MDA-MB-435 = assay: NCI 60 screen, MDA-MB-435; assay type: cell-based; conditions: Homo sapiens, Melanoma
Protocol: as §1

SK-MEL-2 [1] = assay: NCI 60 screen, SK-MEL-2 (first line); assay type: cell-based; conditions: Homo sapiens; Melanoma, SK-MEL-2 (first of two lines so named, r37)
Protocol: as §1

SK-MEL-2 [2] = assay: NCI 60 screen, SK-MEL-2 (second line); assay type: cell-based; conditions: Homo sapiens; Melanoma, SK-MEL-2 (second of two lines so named, r38)
Protocol: as §1

SK-MEL-5 = assay: NCI 60 screen, SK-MEL-5; assay type: cell-based; conditions: Homo sapiens, Melanoma
Protocol: as §1

UACC-257 = assay: NCI 60 screen, UACC-257; assay type: cell-based; conditions: Homo sapiens, Melanoma
Protocol: as §1

UACC-62 = assay: NCI 60 screen, UACC-62; assay type: cell-based; conditions: Homo sapiens, Melanoma
Protocol: as §1

IGROV1 = assay: NCI 60 screen, IGROV1; assay type: cell-based; conditions: Homo sapiens, IGROV-1, Ovarian
Protocol: as §1

OVCAR-3 = assay: NCI 60 screen, OVCAR-3; assay type: cell-based; conditions: Homo sapiens, Ovarian
Protocol: as §1

OVCAR-4 = assay: NCI 60 screen, OVCAR-4; assay type: cell-based; conditions: Homo sapiens, Ovarian
Protocol: as §1

OVCAR-5 = assay: NCI 60 screen, OVCAR-5; assay type: cell-based; conditions: Homo sapiens, Ovarian
Protocol: as §1

OVCAR-8 = assay: NCI 60 screen, OVCAR-8; assay type: cell-based; conditions: Homo sapiens, Ovarian
Protocol: as §1

NCI/ADR-RES = assay: NCI 60 screen, NCI/ADR-RES; assay type: cell-based; conditions: Homo sapiens, Ovarian
Protocol: as §1

SK-OV-3 = assay: NCI 60 screen, SK-OV-3; assay type: cell-based; conditions: Homo sapiens, Ovarian
Protocol: as §1

786-0 = assay: NCI 60 screen, 786-0; assay type: cell-based; conditions: Homo sapiens, Renal
Protocol: as §1

A498 = assay: NCI 60 screen, A498; assay type: cell-based; conditions: Homo sapiens, Renal
Protocol: as §1

ACHN = assay: NCI 60 screen, ACHN; assay type: cell-based; conditions: Homo sapiens, Renal
Protocol: as §1

RXF393 = assay: NCI 60 screen, RXF393; assay type: cell-based; conditions: Homo sapiens, RXF 393, Renal
Protocol: as §1

SN12C = assay: NCI 60 screen, SN12C; assay type: cell-based; conditions: Homo sapiens, Renal
Protocol: as §1

TK-10 = assay: NCI 60 screen, TK-10; assay type: cell-based; conditions: Homo sapiens, Renal
Protocol: as §1

UO-31 = assay: NCI 60 screen, UO-31; assay type: cell-based; conditions: Homo sapiens, Renal
Protocol: as §1

PC-3 = assay: NCI 60 screen, PC-3; assay type: cell-based; conditions: Homo sapiens, Prostatic
Protocol: as §1

DU-145 = assay: NCI 60 screen, DU-145; assay type: cell-based; conditions: Homo sapiens, Prostatic
Protocol: as §1

MCF7 = assay: NCI 60 screen, MCF7; assay type: cell-based; conditions: Homo sapiens, Breast
Protocol: as §1

MDA-MB-231/ATCC = assay: NCI 60 screen, MDA-MB-231/ATCC; assay type: cell-based; conditions: Homo sapiens, Breast
Protocol: as §1

HS 578T = assay: NCI 60 screen, HS 578T; assay type: cell-based; conditions: Homo sapiens, Breast
Protocol: as §1

BT-549 = assay: NCI 60 screen, BT-549; assay type: cell-based; conditions: Homo sapiens, Breast
Protocol: as §1

T-47D = assay: NCI 60 screen, T-47D; assay type: cell-based; conditions: Homo sapiens, T47D, Breast
Protocol: as §1

MDA-MB-468 = assay: NCI 60 screen, MDA-MB-468; assay type: cell-based; conditions: Homo sapiens, Breast
Protocol: as §1

Structure (SMILES): Cn1ccnc1C(=O)/C=C/c1ccc(CC(=O)Nc2ccccc2)cc1 [Compound 27, (E)-2-(4-(3-(1-methyl-1H-imidazol-2-yl)-3-oxoprop-1-en-1-yl)phenyl)-N-phenylacetamide]
- GI50 (CCRF-CEM): 2.37 µM
- GI50 (HL-60(TB)): 1.57 µM
- GI50 (K-562): 1.07 µM
- GI50 (MOLT-4): 4.3 µM
- GI50 (RPMI-8226): 1.45 µM
- GI50 (SR): 1.16 µM
- GI50 (A549/ATCC): 6.6 µM
- GI50 (EKVX): 6.28 µM
- GI50 (HOP-62): 3.75 µM
- GI50 (HOP-92): 6.63 µM
- GI50 (NCI-H226): 8.59 µM
- GI50 (NCI-H23): 3.24 µM
- GI50 (NCI-322M): 2.57 µM
- GI50 (NCI-460): 2.32 µM
- GI50 (NCI-H522): 3.2 µM
- GI50 (COLO 205): 3.77 µM
- GI50 (HCC-2998): 4.42 µM
- GI50 (HCT-116): 1.68 µM
- GI50 (HCT15): 1.25 µM
- GI50 (HT29): 2.4 µM
- GI50 (KM12): 3.39 µM
- GI50 (SW-620): 2.75 µM
- GI50 (SF-268): 3.75 µM
- GI50 (SF-295): 5.44 µM
- GI50 (SF-539): 2.43 µM
- GI50 (SNB-19): 1.9 µM
- GI50 (SNB-75): 25 µM
- GI50 (U251): 1.57 µM
- GI50 (LOX IMVI): 1.03 µM
- GI50 (MALME-3M): 5.93 µM
- GI50 (M14): 4.55 µM
- GI50 (MDA-MB-435): 4.3 µM
- GI50 (SK-MEL-2 [1]): 5.06 µM
- GI50 (SK-MEL-2 [2]): 5.69 µM
- GI50 (SK-MEL-5): 4.18 µM
- GI50 (UACC-257): 6.98 µM
- GI50 (UACC-62): 4.13 µM
- GI50 (IGROV1): 2.11 µM
- GI50 (OVCAR-3): 1.87 µM
- GI50 (OVCAR-4): 4.12 µM
- GI50 (OVCAR-5): 4.19 µM
- GI50 (OVCAR-8): 6.44 µM
- GI50 (NCI/ADR-RES): 7.54 µM
- GI50 (SK-OV-3): 9.3 µM
- GI50 (786-0): 2.67 µM
- GI50 (A498): 6.08 µM
- GI50 (ACHN): 5.24 µM
- GI50 (RXF393): 3.86 µM
- GI50 (SN12C): 3.84 µM
- GI50 (TK-10): 7.44 µM
- GI50 (UO-31): 2.77 µM
- GI50 (PC-3): 3.29 µM
- GI50 (DU-145): 1.1 µM
- GI50 (MCF7): 1.13 µM
- GI50 (MDA-MB-231/ATCC): 2.37 µM
- GI50 (HS 578T): 1.42 µM
- GI50 (BT-549): 2.95 µM
- GI50 (T-47D): 5.23 µM
- GI50 (MDA-MB-468): 1.71 µM
- melting point: 184 to 186 °C
